Reference: patent US6355685B1, “Method of treating anxiety disorders” (Knoll Pharmaceutical Company, priority 1999, dated 2002)

Tested on: rat elevated plus-maze
Experiment: rat elevated plus-maze (animal model of anxiety)
Format: in vivo
Details: 3 mg/kg po
Description: This model was carried out as described in J. Neurosci. Methods 1985; 14:149-167.

For `CC(C)CC(N(C)C)C1(c2ccc(Cl)cc2)CCC1.Cl.O` (stereo not shown) [N-{1-[1-(4-chlorophenyl)cyclobutyl]-3-methylbutyl}-N,N-dimethylamine hydrochloride monohydrate], the “open: total arm entry ratio” value was “significant anxiolytic-like increase”.
